What was measured:
Format in all cases: cell-based
[1] = test system: primary human mesenchymal stem cells (hMSCs); assay: Chondrogenesis assay in primary human mesenchymal stem cells, nodule count vs TGF-β3 positive control; conditions: 6 days; for Conc (nM) of Max. activity: 6-point dose-response 2700 nM to 10 nM, dose at which maximum chondrogenesis activity was reached; for Conc (nM) of 100% TGF-β3 activity: concentration required to induce chondrogenesis equivalent to TGF-β3 (10 ng/mL); for Max. Activity as % TGF-β3 activity: relative to TGF-β3 (10 ng/mL) positive control
From the text: The above synthesized compounds were screened using primary human mesenchymal stem cells (hMSCs) to determine their ability to induce chondrogenesis (process by which cartilage is developed).
Human Mesenchymal Stem Cell Culture:
Primary human mesenchymal stem cells (hMSCs) were purchased from Lonza (Walkersville, Md.) and expanded in Mesenchymal Stem Cell Growth Media (Lonza). Cells between passage 3 and 6 were used for the experiments.
Number of nodules in each well was normalized to the average of 3 DMSO treated wells on the same plate using Excel (Microsoft Inc.). The normalized averages (fold change over DMSO) of 3 replicate wells for each compound concentration were calculated. Due to solubility limitations of some of the compounds, curve fitting was incomplete leading to inaccurate EC50 determinations.
Using TGF-β3 as a positive control, the concentration of test compounds required to induce equivalent levels of chondrogenesis is reported. In addition, the maximum activity of each compound and the respective dose that each compound reached maximum chondrogenesis activity is reported.

[2] = test system: Wnt activity (Wnt-responsive SP5 promoter luciferase reporter in SW480 cells); assay: Wnt activity reporter assay: SW480 cells with SP5 promoter-driven firefly luciferase; conditions: Homo sapiens, 24 h after compound addition, read-out: Wnt inhibition
How it was run: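 SW480 cells (APC-mutant colon line) stably carrying a lentiviral SP5-promoter (eight TCF/LEF sites) firefly luciferase reporter were plated at ~10,000 cells/well. Luminescence was normalized to DMSO-only cells and used for IC50.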

[3] = test system: primary human fibroblasts derived from IPF patients (LL29 cells); assay: Inhibition of the fibrotic process: αSMA staining in TGF-β1 treated LL29 fibroblasts; conditions: Fibroblast, 72 h, TGF-β1 10 ng/ml, 3 days, read-out: Inhibition of fibrosis IC50
Description: The above synthesized compounds were screened using primary human fibroblasts (derived from IPF patients) treated with TGF-β1 to determine their ability to inhibit the fibrotic process.
Each compound was dissolved in DMSO as a 10 mM stock and used to prepare compound source plates. […] LL29 cells were plated at 1,000 cells/well in 50 μl/well serum free F12 medium. […] Wells untreated with TGF-β1 were used as control for normalization and calculating IC50 values. Cells were incubated at 37° C. and 5% CO2 for 3 days. Cells were fixed using 4% formaldehyde (Electron Microscopy Sciences), washed 3 times with PBS followed by blocking and permeabilization using 3% Bovine Serum Albumin (BSA; Sigma) and 0.3% Triton X-100 (Sigma) in PBS. […] The IC50 values are reported.

[4] = molecular target: DYRK1A (Homo sapiens (Human), UniProt Q13627); assay: DYRK1A activity Tau assay: pSer396 Tau in SH-SY5Y cells by ELISA / western blot; conditions: overnight (16-18 h) exposure

| Compound | Conc (nM) of Max. activity [1] | Conc (nM) of 100% TGF-β3 activity [1] | Max. Activity as % TGF-β3 activity [1] | IC50 [2] | IC50 [3] | EC50 [4] |
| --- | --- | --- | --- | --- | --- | --- |
| CN1CCN(c2ccc(NC(=O)c3n[nH]c4ccc(-c5cncc(NC(=O)c6cc(F)ccc6F)c5)cc34)cn2)CC1 [Compound 48, 5-(5-(2,5-Difluorobenzamido)pyridin-3-yl)-N-(6-(4-methylpiperazin-1-yl)pyridin-3-yl)-1H-indazole-3-carboxamide] | 2700 nM | 2700 nM | 237% | 31 nM | 67 nM | 2 nM |
| COc1ccc(NC(=O)c2n[nH]c3ccc(-c4cncc(CN5CCCC5)c4)cc23)cn1 [Compound 53, N-(6-Methoxypyridin-3-yl)-5-(5-(pyrrolidin-1-ylmethyl)pyridin-3-yl)-1H-indazole-3-carboxamide] | 2700 nM |  | 86% | 50 nM | 231 nM | 2 nM |
| COc1ccc(NC(=O)c2n[nH]c3ccc(-c4cncc(CN5CCC(F)(F)C5)c4)cc23)cn1 [Compound 54, 5-(5-((3,3-Difluoropyrrolidin-1-yl)methyl)pyridin-3-yl)-N-(6-methoxypyridin-3-yl)-1H-indazole-3-carboxamide] | 300 nM |  | 51% | 5 nM | 51 nM | 2 nM |
| CN1CCN(c2ccc(NC(=O)c3n[nH]c4ccc(-c5cncc(CN6CCC(F)(F)C6)c5)cc34)cn2)CC1 [Compound 55, 5-(5-((3,3-Difluoropyrrolidin-1-yl)methyl)pyridin-3-yl)-N-(6-(4-methylpiperazin-1-yl)pyridin-3-yl)-1H-indazole-3-carboxamide] | 100 nM |  | 69% | 4 nM | 140 nM | 1 nM |
| Cc1cncc(NC(=O)c2n[nH]c3ccc(-c4cncc(CN5CCCCC5)c4)cc23)c1 [Compound 64, N-(5-Methylpyridin-3-yl)-5-(5-(piperidin-1-ylmethyl)pyridin-3-yl)-1H-indazole-3-carboxamide] | 2700 nM |  | 83% | 59 nM | 265 nM | 2 nM |
| Cc1ccc(NC(=O)c2n[nH]c3ccc(-c4cncc(CN5CCCCC5)c4)cc23)cn1 [Compound 65, N-(6-Methylpyridin-3-yl)-5-(5-(piperidin-1-ylmethyl)pyridin-3-yl)-1H-indazole-3-carboxamide] | 900 nM | 900 nM | 117% | 57 nM | 172 nM | 1 nM |
| CC(C)Oc1ccc(NC(=O)c2n[nH]c3ccc(-c4cncc(CN5CCCCC5)c4)cc23)cn1 [Compound 67, N-(6-Isopropoxypyridin-3-yl)-5-(5-(piperidin-1-ylmethyl)pyridin-3-yl)-1H-indazole-3-carboxamide] | 2700 nM |  | 82% | 41 nM | 251 nM | 3 nM |
| CC(C)CC(=O)Nc1ccncc1NC(=O)c1n[nH]c2ccc(-c3cncc(CN4CCCCC4)c3)cc12 [Compound 73, N-(4-(3-Methylbutanamido)pyridin-3-yl)-5-(5-(piperidin-1-ylmethyl)pyridin-3-yl)-1H-indazole-3-carboxamide] | 900 nM |  | 65% | 25 nM | 1870 nM | 57 nM |
| O=C(Nc1cnccc1NC(=O)C1CC1)c1n[nH]c2ccc(-c3cncc(CN4CCCCC4)c3)cc12 [Compound 74, N-(4-(Cyclopropanecarboxamido)pyridin-3-yl)-5-(5-(piperidin-1-ylmethyl)pyridin-3-yl)-1H-indazole-3-carboxamide] | 10 nM |  | 31% | 120 nM | 2740 nM |  |
| O=C(Nc1ccnc(C(F)(F)F)c1)c1n[nH]c2ccc(-c3cncc(CN4CCCCC4)c3)cc12 [Compound 80, 5-(5-(Piperidin-1-ylmethyl)pyridin-3-yl)-N-(2-(trifluoromethyl)pyridin-4-yl)-1H-indazole-3-carboxamide] | 900 nM |  | 20% | 36 nM | 303 nM | 36 nM |
| CC1CCN(Cc2cncc(-c3ccc4[nH]nc(C(=O)Nc5cccnc5)c4c3)c2)CC1 [Compound 82, 5-(5-((4-Methylpiperidin-1-yl)methyl)pyridin-3-yl)-N-(pyridin-3-yl)-1H-indazole-3-carboxamide] | 900 nM | 900 nM | 109% | 7 nM | 129 nM | 2 nM |
| O=C(Nc1cccnc1)c1n[nH]c2ccc(-c3cncc(CN4CC5CC(C4)O5)c3)cc12 [Compound 84, 5-(5-((6-Oxa-3-azabicyclo[3.1.1]heptan-3-yl)methyl)pyridin-3-yl)-N-(pyridin-3-yl)-1H-indazole-3-carboxamide] | 900 nM | 900 nM | 121% | 67 nM | 132 nM |  |
| CC(C)Oc1ccc(NC(=O)c2n[nH]c3ccc(-c4cncc(CN5CC6CC(C5)O6)c4)cc23)cn1 [Compound 85, 5-(5-((6-Oxa-3-azabicyclo[3.1.1]heptan-3-yl)methyl)pyridin-3-yl)-N-(6-isopropoxypyridin-3-yl)-1H-indazole-3-carboxamide] | 900 nM |  | 49% | 61 nM | 180 nM | 4 nM |
| CC(C)NC(=O)c1n[nH]c2ccc(-c3cncc(CN4CCCC4)c3)cc12 [Compound 129, N-Isopropyl-5-(5-(pyrrolidin-1-ylmethyl)pyridin-3-yl)-1H-indazole-3-carboxamide] | 2700 nM | 2700 nM | 108% |  |  | 42 nM |
| CC(C)NC(=O)c1n[nH]c2ccc(-c3cncc(CN4CCC(F)(F)CC4)c3)cc12 [Compound 132, 5-(5-((4,4-Difluoropiperidin-1-yl)methyl)pyridin-3-yl)-N-isopropyl-1H-indazole-3-carboxamide] | 2700 nM | 2700 nM |  | 47 nM | 237 nM | 6 nM |
| O=C(NC1CCCCC1)c1n[nH]c2ccc(-c3cncc(N4CCCC4)c3)cc12 [Compound 200, N-Cyclohexyl-5-(5-(pyrrolidin-1-yl)pyridin-3-yl)-1H-indazole-3-carboxamide] | 2700 nM | 2700 nM | 138% |  |  | 58 nM |
| C#CCN1CCC(NC(=O)c2n[nH]c3ccc(-c4cccc(F)c4F)cc23)CC1 [Compound 367, 5-(2,3-Difluorophenyl)-N-(1-(prop-2-yn-1-yl)piperidin-4-yl)-1H-indazole-3-carboxamide] | 2700 nM |  | 65% |  |  | 35 nM |
| O=C(Nc1cccnc1)c1n[nH]c2cc(F)c(-c3cncc(CN4CCCCC4)c3)cc12 [Compound 1153, 6-Fluoro-5-(5-(piperidin-1-ylmethyl)pyridin-3-yl)-N-(pyridin-3-yl)-1H-indazole-3-carboxamide] | 2700 nM | 900 nM | 146% |  |  | 1 nM |
| O=C(NC1CC1)c1n[nH]c2ccc(-c3cncnc3)cc12 [Compound 1269, N-Cyclopropyl-5-(pyrimidin-5-yl)-1H-indazole-3-carboxamide] | 2700 nM |  | 53% |  |  | 76 nM |
| CC(C)N1CCC(NC(=O)c2n[nH]c3ccc(-c4cncc(Cl)c4)cc23)CC1 [Compound 1305, 5-(5-Chloropyridin-3-yl)-N-(1-isopropylpiperidin-4-yl)-1H-indazole-3-carboxamide] | 2700 nM | 2700 nM | 121% |  |  | 124 nM |
| O=C(Nc1ccccn1)c1n[nH]c2cc(F)c(-c3cncc(CN4CCCCC4)c3)cc12 [Compound 1343, 6-Fluoro-5-(5-(piperidin-1-ylmethyl)pyridin-3-yl)-N-(pyridin-2-yl)-1H-indazole-3-carboxamide] | 2700 nM |  | 67% |  |  | 2 nM |

Reference: patent publication US10669240B2, “5-substituted indazole-3-carboxamides and preparation and use thereof” (Samumed, LLC, priority 2014, dated 2020)
